Patent publication US4617314A, “Benzofuran- and benzopyran-carboxamide derivatives” (priority 1983, dated 1986)

Columns and labels:
[1] = tested on: hypermotility of mice induced by apomorphine; assay: Anti-apomorphine Action (mice): suppression of spontaneous motility; type: in vivo, mice (male dd-strain); conditions: 60 min before 0.5 mg/kg apomorphine hydrochloride, 50% suppression of spontaneous motility; for ED50: Mus musculus, po; for Anti-apomorphine Action ED50, Mice, Motility: p.o.
Source text: (§1) Dopamine antagonism was observed by the antagonism to
(1) hypermotility of mice, and
(§2) induced by the administration of apomorphine to the animals which drug acts on dopamine. The response of (1) is considered to be due to the action of dopamine on the mesolimbic system whereas the response of (2) is regarded mainly as the action of dopamine on the extrapyramidal system. As a consequence, a drug having high selectivity to the antagonism to the response of (1) is deemed to be more useful with less extrapyramidal side effects.
Groups of 5 male dd-strain mice were used. Test compounds were orally administered and 60 minutes thereafter, 0.5 mg/kg of apomorphine hydrochloride was intracutaneously administered. Immediately thereafter, spontaneous motility of the mice was measured with the aid of Animex (manufactured by Columbus Company, U.S.A.) for 20 minutes. The procedure was repeated three times with respective groups. The dose of test compounds required for 50% suppression of spontaneous motility of control group was graphically intraporated and determined as ED50 value.

[2] = tested on: stereotyped behavior of rats induced by apomorphine; assay: Anti-apomorphine Action (rats): suppression of gnawing (stereotyped) behavior; type: in vivo, rats (female Wistar); conditions: Rattus norvegicus, po, 60 min before 1.25 mg/kg i.v. apomorphine hydrochloride; 50% suppression of gnawing behavior; probit
Source text: as §1
(2) stereotyped behavior of rats
as §2
Groups of 7 female Wistar rats were used. Test compounds were orally administered, 60 minutes thereafter, apomorphine hydrochloride was intravenously administered at a dosage of 1.25 mg/kg. After 5 minutes and 20 minutes, respectively, whether gnawing behavior (stereotyped behavior) appears or not during the period of 5 minutes was observed. The dose of test compounds required for 50% suppression of the appearance was evaluated as ED50 value by probit method.

[3] = tested on: rats administered with methamphetamine; assay: Methamphetamine Potentiation Action (lethality increasing effect); type: in vivo, rats (male Wistar); conditions: 8 rats/group, methamphetamine hydrochloride 5 mg/kg i.p.
Protocol: Activation effect was construed as lethality increasing effect of a test drug on rats which were administered with methamphetamine at a non-lethal dose every week. Accordingly, it is considered that the greater is the number of rats which died at a lower dose in an earlier week, the activation activity is the higher.
Groups of 8 male Wistar rats weighing above […] were used. Test compounds are intraperitoneally administered and 15 minutes thereafter, 5 mg/kg of methamphetamine hydrochloride was intraperitoneally administered. Number of dead rats within one week was counted. In the 2nd to 4th week, experiment was likewise repeated at one week intervals by the administration of test compounds and methamphetamine hydrochloride.

extrapyramidal system = conditions: cited from earlier work
[4] = in vivo, po; cited from earlier work
[5] = in vivo; cited from earlier work

CCCCN1CCCC1CNC(=O)c1cc(S(N)(=O)=O)cc2c1OC(C)C2 (centres unmarked) [Compound I, N-(1-butyl-2-pyrrolidinylmethyl)-2-methyl-5-sulfamoyl-2,3-dihydrobenzofuran-7-carboxamide]
ED50 [1]: 30 mg/kg | ED50 [2]: > 100 mg/kg

CCN1CCCC1CNC(=O)c1cc(S(N)(=O)=O)cc2c1OCC2.O (centres unmarked) [L, N-(1-ethyl-2-pyrrolidinylmethyl)-5-sulfamoyl-2,3-dihydrobenzofuran-7-carboxamide monohydrate]
Methamphetamine Potentiation Action, Number of Dead Animal, Total Number ([3]; 1st Week, 25 mg/kg): 3 | Methamphetamine Potentiation Action, Number of Dead Animal, Total Number ([3]; 2nd Week, 25 mg/kg): 3 | Methamphetamine Potentiation Action, Number of Dead Animal, Total Number ([3]; 3rd Week, 25 mg/kg): 7 | Methamphetamine Potentiation Action, Number of Dead Animal, Total Number ([3]; 4th Week, 25 mg/kg): 8

CCN1CCCC1CNC(=O)c1cc(S(N)(=O)=O)cc2c1OC(C)C2 (single isomer, unassigned) [C, N-(1-ethyl-2-pyrrolidinylmethyl)-2-methyl-5-sulfamoyl-2,3-dihydrobenzofuran-7-carboxamide]
Anti-apomorphine Action ED50, Mice, Motility [1]: 85 mg/kg

CCN1CCCC1CNC(=O)c1cc(SC)cc2c1OC(C)C2.Cl (centres unmarked) [K, N-(1-ethyl-2-pyrrolidinylmethyl)-2-methyl-5-methylthio-2,3-dihydrobenzofuran-7-carboxamide hydrochloride]
ED50 [1]: 0.65 mg/kg | ED50 [2]: 0.2 mg/kg

CC(C)CN1CCCC1CNC(=O)c1cc(S(N)(=O)=O)cc2c1OCC2 (centres unmarked) [G, N-(1-isobutyl-2-pyrrolidinylmethyl)-5-sulfamoyl-2,3-dihydrobenzofuran-7-carboxamide]
ED50 [1]: 35 mg/kg | ED50 [2]: > 100 mg/kg

NS(=O)(=O)c1cc2c(c(C(=O)NCC3CCCN3Cc3ccccc3)c1)OCC2 (centres unmarked) [F, N-(1-benzyl-2-pyrrolidinylmethyl)-5-sulfamoyl-2,3-dihydrobenzofuran-7-carboxamide]
ED50 [1]: 17 mg/kg | ED50 [2]: > 100 mg/kg | Methamphetamine Potentiation Action, Number of Dead Animal, Total Number ([3]; 1st Week, 10 mg/kg): 0 | Methamphetamine Potentiation Action, Number of Dead Animal, Total Number ([3]; 1st Week, 25 mg/kg): 0 | Methamphetamine Potentiation Action, Number of Dead Animal, Total Number ([3]; 1st Week, 50 mg/kg): 0 | Methamphetamine Potentiation Action, Number of Dead Animal, Total Number ([3]; 2nd Week, 10 mg/kg): 0 | Methamphetamine Potentiation Action, Number of Dead Animal, Total Number ([3]; 2nd Week, 25 mg/kg): 0 | Methamphetamine Potentiation Action, Number of Dead Animal, Total Number ([3]; 2nd Week, 50 mg/kg): 2 | Methamphetamine Potentiation Action, Number of Dead Animal, Total Number ([3]; 3rd Week, 10 mg/kg): 0 | Methamphetamine Potentiation Action, Number of Dead Animal, Total Number ([3]; 3rd Week, 25 mg/kg): 1 | Methamphetamine Potentiation Action, Number of Dead Animal, Total Number ([3]; 3rd Week, 50 mg/kg): 3 | Methamphetamine Potentiation Action, Number of Dead Animal, Total Number ([3]; 4th Week, 10 mg/kg): 1 | Methamphetamine Potentiation Action, Number of Dead Animal, Total Number ([3]; 4th Week, 25 mg/kg): 2 | Methamphetamine Potentiation Action, Number of Dead Animal, Total Number ([3]; 4th Week, 50 mg/kg): 6

CCN1CCCC1CNC(=O)c1cc(S(=O)(=O)NC)cc2c1OC(C)C2.Cl (centres unmarked) [J, N-(1-ethyl-2-pyrrolidinylmethyl)-2-methyl-5-methylsulfamoyl-2,3-dihydrobenzofuran-7-carboxamide hydrochloride]
ED50 [1]: 10 mg/kg | ED50 [2]: > 100 mg/kg

CC(C)CN1CCCC1CNC(=O)c1cc(S(N)(=O)=O)cc2c1OC(C)C2 (centres unmarked) [H, N-(1-isobutyl-2-pyrrolidinylmethyl)-2-methyl-5-sulfamoyl-2,3-dihydrobenzofuran-7-carboxamide]
ED50 [1]: 19 mg/kg | ED50 [2]: 60 mg/kg | Methamphetamine Potentiation Action, Number of Dead Animal, Total Number ([3]; 1st Week, 20 mg/kg): 0 | Methamphetamine Potentiation Action, Number of Dead Animal, Total Number ([3]; 1st Week, 40 mg/kg): 2 | Methamphetamine Potentiation Action, Number of Dead Animal, Total Number ([3]; 2nd Week, 20 mg/kg): 6 | Methamphetamine Potentiation Action, Number of Dead Animal, Total Number ([3]; 2nd Week, 40 mg/kg): 4 | Methamphetamine Potentiation Action, Number of Dead Animal, Total Number ([3]; 3rd Week, 20 mg/kg): 6 | Methamphetamine Potentiation Action, Number of Dead Animal, Total Number ([3]; 3rd Week, 40 mg/kg): 7 | Methamphetamine Potentiation Action, Number of Dead Animal, Total Number ([3]; 4th Week, 20 mg/kg): 7 | Methamphetamine Potentiation Action, Number of Dead Animal, Total Number ([3]; 4th Week, 40 mg/kg): 7

CCN1CCCC1CNC(=O)c1cc(S(N)(=O)=O)cc2c1OC(C)C2 (centres unmarked) [A, N-(1-ethyl-2-pyrrolidinylmethyl)-2-methyl-5-sulfamoyl-2,3-dihydrobenzofuran-7-carboxamide]
ED50 [1]: 80 mg/kg | ED50 [2]: > 100 mg/kg | Methamphetamine Potentiation Action, Number of Dead Animal, Total Number ([3]; 1st Week, 5 mg/kg): 1 | Methamphetamine Potentiation Action, Number of Dead Animal, Total Number ([3]; 1st Week, 10 mg/kg): 0 | Methamphetamine Potentiation Action, Number of Dead Animal, Total Number ([3]; 1st Week, 20 mg/kg): 2 | Methamphetamine Potentiation Action, Number of Dead Animal, Total Number ([3]; 2nd Week, 5 mg/kg): 1 | Methamphetamine Potentiation Action, Number of Dead Animal, Total Number ([3]; 2nd Week, 10 mg/kg): 3 | Methamphetamine Potentiation Action, Number of Dead Animal, Total Number ([3]; 2nd Week, 20 mg/kg): 5 | Methamphetamine Potentiation Action, Number of Dead Animal, Total Number ([3]; 3rd Week, 5 mg/kg): 1 | Methamphetamine Potentiation Action, Number of Dead Animal, Total Number ([3]; 3rd Week, 10 mg/kg): 4 | Methamphetamine Potentiation Action, Number of Dead Animal, Total Number ([3]; 3rd Week, 20 mg/kg): 5 | Methamphetamine Potentiation Action, Number of Dead Animal, Total Number ([3]; 4th Week, 5 mg/kg): 1 | Methamphetamine Potentiation Action, Number of Dead Animal, Total Number ([3]; 4th Week, 10 mg/kg): 4 | Methamphetamine Potentiation Action, Number of Dead Animal, Total Number ([3]; 4th Week, 20 mg/kg): 7

CC1Cc2cc(S(N)(=O)=O)cc(C(=O)NCC3CCCN3Cc3ccccc3)c2O1 (centres unmarked) [D, N-(1-benzyl-2-pyrrolidinylmethyl)-2-methyl-5-sulfamoyl-2,3-dihydrobenzofuran-7-carboxamide]
ED50 [1]: 6 mg/kg | ED50 [2]: 21 mg/kg

CCN1CCCC1CNC(=O)c1cc(S(N)(=O)=O)cc2c1OC(C)C2 (single isomer, unassigned) [B, N-(1-ethyl-2-pyrrolidinylmethyl)-2-methyl-5-sulfamoyl-2,3-dihydrobenzofuran-7-carboxamide]
Anti-apomorphine Action ED50, Mice, Motility [1]: 23 mg/kg

CC1Cc2cc(S(N)(=O)=O)cc(C(=O)NC3CCN(Cc4ccccc4)C3)c2O1 (centres unmarked) [Compound E, N-(1-benzyl-3-pyrrolidinyl)-2-methyl-5-sulfamoyl-2,3-dihydrobenzofuran-7-carboxamide]
ED50 [1]: 100 mg/kg | ED50 [2]: > 100 mg/kg

CCN1CCCC1CNC(=O)c1cc(S(N)(=O)=O)ccc1OC (centres unmarked) [Sulpyride, reference compound]
ED50 [1]: 330 mg/kg | ED50 [2]: > 500 mg/kg | Methamphetamine Potentiation Action, Number of Dead Animal, Total Number ([3]; 1st Week, 20 mg/kg): 0 | Methamphetamine Potentiation Action, Number of Dead Animal, Total Number ([3]; 1st Week, 40 mg/kg): 0 | Methamphetamine Potentiation Action, Number of Dead Animal, Total Number ([3]; 1st Week, 80 mg/kg): 2 | Methamphetamine Potentiation Action, Number of Dead Animal, Total Number ([3]; 2nd Week, 20 mg/kg): 0 | Methamphetamine Potentiation Action, Number of Dead Animal, Total Number ([3]; 2nd Week, 40 mg/kg): 0 | Methamphetamine Potentiation Action, Number of Dead Animal, Total Number ([3]; 2nd Week, 80 mg/kg): 3 | Methamphetamine Potentiation Action, Number of Dead Animal, Total Number ([3]; 3rd Week, 20 mg/kg): 0 | Methamphetamine Potentiation Action, Number of Dead Animal, Total Number ([3]; 3rd Week, 40 mg/kg): 1 | Methamphetamine Potentiation Action, Number of Dead Animal, Total Number ([3]; 3rd Week, 80 mg/kg): 3 | Methamphetamine Potentiation Action, Number of Dead Animal, Total Number ([3]; 4th Week, 20 mg/kg): 0 | Methamphetamine Potentiation Action, Number of Dead Animal, Total Number ([3]; 4th Week, 40 mg/kg): 1 | Methamphetamine Potentiation Action, Number of Dead Animal, Total Number ([3]; 4th Week, 80 mg/kg): 3 | cataleptogenic activity (extrapyramidal system; as opposed to butyrophenone-series (haloperidol) or phenothiazine-series (chlorpromazine) compounds): weak | side effects on the extrapyramidal system (extrapyramidal system; in vivo): less side effects | uptake rate in living organisms [4]: low uptake rate | crossing of blood-brain barrier [5]: difficult to cross blood-brain barrier
